# Measured values as given in the supplement of paper PMC10307832.
# Legend:
# Experiment in all cases: relative viability (nuclei count vs DMSO), 5 days (fraction); higher = more cells survive
# Wnt-C59 + Decitabine = compound: CC1=NC=CC(=C1)C2=CC=C(C=C2)CC(=O)NC3=CC=C(C=C3)C4=CN=CC=C4 [Wnt-C59] + Nc1ncn([C@H]2C[C@H](O)[C@@H](CO)O2)c(=O)n1 [Decitabine] (partner 2 µM)
# Outline: (§1)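 Relative viability is defined as nuclei in treated wells over nuclei in vehicle wells. Duplicate plates were run and medians reported. Lung cancer cell lines in 1536-well plates were dosed by pin tool one day after seeding, with one drug or with a fixed anchor-drug dose plus five library-drug doses (not always all listed) in √10 steps, and nuclei were counted after 5 days.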
# Lapatinib + Pictilisib = compound: CS(=O)(=O)CCNCc1ccc(-c2ccc3ncnc(Nc4ccc(OCc5cccc(F)c5)c(Cl)c4)c3c2)o1 [Lapatinib] + CS(=O)(=O)N1CCN(Cc2cc3nc(-c4cccc5[nH]ncc45)nc(N4CCOCC4)c3s2)CC1 [Pictilisib] (partner 1 µM)
# Outline: as §1
# Lapatinib + Olaparib = compound: CS(=O)(=O)CCNCc1ccc(-c2ccc3ncnc(Nc4ccc(OCc5cccc(F)c5)c(Cl)c4)c3c2)o1 [Lapatinib] + O=C(c1cc(Cc2n[nH]c(=O)c3ccccc23)ccc1F)N1CCN(C(=O)C2CC2)CC1 [Olaparib] (partner 8 µM)
# Outline: as §1
# Lapatinib + Tozasertib = compound: CS(=O)(=O)CCNCc1ccc(-c2ccc3ncnc(Nc4ccc(OCc5cccc(F)c5)c(Cl)c4)c3c2)o1 [Lapatinib] + Cc1cc(Nc2cc(N3CCN(C)CC3)nc(Sc3ccc(NC(=O)C4CC4)cc3)n2)n[nH]1 [Tozasertib] (partner 0.1 µM)
# Outline: as §1
Cell Line,relative viability (Wnt-C59 + Decitabine; first compound 0.001 µM),relative viability (Wnt-C59 + Decitabine; first compound 0.01 µM),relative viability (Wnt-C59 + Decitabine; first compound 0.03162 µM),relative viability (Wnt-C59 + Decitabine; first compound 0.1 µM),relative viability (Lapatinib + Pictilisib; first compound 0.06325 µM),relative viability (Lapatinib + Pictilisib; first compound 0.2 µM),relative viability (Lapatinib + Pictilisib; first compound 0.6325 µM),relative viability (Lapatinib + Pictilisib; first compound 2 µM),relative viability (Lapatinib + Olaparib; first compound 0.02 µM),relative viability (Lapatinib + Olaparib; first compound 0.06325 µM),relative viability (Lapatinib + Olaparib; first compound 0.6325 µM),relative viability (Lapatinib + Olaparib; first compound 2 µM),relative viability (Lapatinib + Tozasertib; first compound 0.02 µM),relative viability (Lapatinib + Tozasertib; first compound 0.06325 µM),relative viability (Lapatinib + Tozasertib; first compound 0.2 µM),relative viability (Lapatinib + Tozasertib; first compound 0.6325 µM),relative viability (Lapatinib + Tozasertib; first compound 2 µM),relative viability (Lapatinib + Pictilisib; first compound 0.02 µM),relative viability (Lapatinib + Olaparib; first compound 0.2 µM)
ABC-1,1.08,1.14,1.05,0.938,0.655,1.09,0.93,0.696,0.983,0.882,0.781,0.9,0.155,0.187,0.156,0.155,0.16,–,–
NCI-H2170,0.47,0.516,0.506,0.474,0.207,0.275,0.244,0.237,0.564,0.483,0.459,0.118,0.704,0.553,0.565,0.403,0.169,0.281,0.501
NCI-H650,0.346,0.286,0.308,0.329,0.918,0.888,0.782,1.04,–,0.355,0.397,0.337,–,0.648,0.781,0.698,0.601,–,0.372
LOU-NH91,0.873,0.838,0.83,0.822,0.451,0.425,0.513,0.447,0.921,0.748,0.696,0.617,0.643,0.504,0.524,0.51,0.427,0.395,0.836
NCI-H2023,0.227,0.244,0.251,0.221,0.15,0.262,0.276,0.199,0.435,0.455,0.444,0.397,0.249,–,0.191,0.204,0.137,0.164,0.436
LC-2-ad,0.756,0.714,0.927,0.772,0.425,0.543,0.431,0.322,–,0.796,0.675,0.694,–,0.392,0.444,0.456,0.372,–,0.704
NCI-H1355,0.361,0.354,0.349,0.337,0.419,0.496,0.499,0.285,0.719,0.594,0.688,0.439,–,0.416,0.498,0.494,0.26,–,0.699
NCI-H2347,0.629,0.628,0.643,0.602,0.673,0.663,0.646,0.873,0.636,0.568,0.629,0.527,–,0.57,0.52,0.439,0.399,0.598,0.598
NCI-H441,0.232,0.226,0.246,0.166,0.417,0.431,0.422,0.453,0.689,–,0.486,0.559,–,0.551,0.491,0.462,0.454,0.332,0.48
